Results taken from patent US20260224588A1, “BENZODIAZEPINONE-DERIVED INHIBITORS OF EGFR AND HER2” (The Research Foundation for the State University of New York, priority 2023, published 2026).

Experiments:
EGFR WT = target: T1, EGFR WT (Homo sapiens, UniProt P00533); assay: Time-dependent kinase inhibition assay (Sox-based substrate); type: biochemical
T1 construct: EGFR WT, cytoplasmic domain (669-1210), GST-tagged, Carna; purchased Carna 08-115
Protocol: (§1) Time-dependent Kinase Inhibition Assays. Biochemical assays were performed with commercially available EGFR WT, cytoplasmic domain (669-1210), GST-tagged, Carna (Cat #/Lot #: 08-115/21CBS-0127H), EGFR [T790M/L858R] and EGFR [L858R], cytoplasmic domain (669-1210), GST-tagged, Carna (Cat #/Lot #: 08-510/12CBS-0765M). […] BSA was not included in this experiment to prevent interference with irreversible inhibitor characterization via off-target binding. All reactions were run for 240 minutes at 30° C. Time-dependent fluorescence from the Sox-based substrate was monitored in PerkinElmer ProxiPlate-384 Plus, white shallow well microplates (Cat. #6008280) Biotek Synergy Neo 2 microplate reader with excitation (360 nm) and emission (485 nm) wavelengths. 2 was dosed between 0 and 10 μM in 24-point curves with 1.5-fold dilutions. Fluorescence, determined with identical reactions but lacking purified enzyme or crude cell lysate was subtracted from the total fluorescence signal for each time point, with both determined in duplicate, to obtain corrected relative fluorescence units (RFU). Corrected RFU values then were plotted vs. time and the reaction velocity for the first ~40 min (initial reaction rates) were determined from the slope using GraphPad Prism (La Jolla, CA) with units of RFU/min.

EGFR [T790M/L858R] = target: T2, EGFR [T790M/L858R] (Homo sapiens, UniProt P00533, L858R/T790M); assay: as above; type: biochemical
T2 construct: EGFR [T790M/L858R] and EGFR [L858R], cytoplasmic domain (669-1210), GST-tagged, Carna; GST; purchased Carna 08-510
T2 sequence (P00533 669-1210 T790M/L858R): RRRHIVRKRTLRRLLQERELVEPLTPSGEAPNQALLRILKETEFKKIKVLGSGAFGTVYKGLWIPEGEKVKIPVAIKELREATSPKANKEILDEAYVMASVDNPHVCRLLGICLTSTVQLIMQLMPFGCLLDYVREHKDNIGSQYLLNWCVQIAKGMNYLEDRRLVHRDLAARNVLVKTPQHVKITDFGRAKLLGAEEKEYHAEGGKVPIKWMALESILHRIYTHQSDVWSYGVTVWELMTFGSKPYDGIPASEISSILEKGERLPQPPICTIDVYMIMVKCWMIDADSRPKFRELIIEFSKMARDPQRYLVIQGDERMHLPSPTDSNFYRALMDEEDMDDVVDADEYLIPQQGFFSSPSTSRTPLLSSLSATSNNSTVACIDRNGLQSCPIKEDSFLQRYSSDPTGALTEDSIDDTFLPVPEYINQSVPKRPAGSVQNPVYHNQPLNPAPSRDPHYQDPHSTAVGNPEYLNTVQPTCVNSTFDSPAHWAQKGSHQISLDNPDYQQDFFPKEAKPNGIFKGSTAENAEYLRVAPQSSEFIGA
Protocol: as §1

BMPR2 = BMPR2 (Homo sapiens, UniProt Q13873); assay: KINOMEscan; type: binding; conditions: 1 μM of compound 4; read-out: POC
Chain of BMPR2 (Q13873 27-1038): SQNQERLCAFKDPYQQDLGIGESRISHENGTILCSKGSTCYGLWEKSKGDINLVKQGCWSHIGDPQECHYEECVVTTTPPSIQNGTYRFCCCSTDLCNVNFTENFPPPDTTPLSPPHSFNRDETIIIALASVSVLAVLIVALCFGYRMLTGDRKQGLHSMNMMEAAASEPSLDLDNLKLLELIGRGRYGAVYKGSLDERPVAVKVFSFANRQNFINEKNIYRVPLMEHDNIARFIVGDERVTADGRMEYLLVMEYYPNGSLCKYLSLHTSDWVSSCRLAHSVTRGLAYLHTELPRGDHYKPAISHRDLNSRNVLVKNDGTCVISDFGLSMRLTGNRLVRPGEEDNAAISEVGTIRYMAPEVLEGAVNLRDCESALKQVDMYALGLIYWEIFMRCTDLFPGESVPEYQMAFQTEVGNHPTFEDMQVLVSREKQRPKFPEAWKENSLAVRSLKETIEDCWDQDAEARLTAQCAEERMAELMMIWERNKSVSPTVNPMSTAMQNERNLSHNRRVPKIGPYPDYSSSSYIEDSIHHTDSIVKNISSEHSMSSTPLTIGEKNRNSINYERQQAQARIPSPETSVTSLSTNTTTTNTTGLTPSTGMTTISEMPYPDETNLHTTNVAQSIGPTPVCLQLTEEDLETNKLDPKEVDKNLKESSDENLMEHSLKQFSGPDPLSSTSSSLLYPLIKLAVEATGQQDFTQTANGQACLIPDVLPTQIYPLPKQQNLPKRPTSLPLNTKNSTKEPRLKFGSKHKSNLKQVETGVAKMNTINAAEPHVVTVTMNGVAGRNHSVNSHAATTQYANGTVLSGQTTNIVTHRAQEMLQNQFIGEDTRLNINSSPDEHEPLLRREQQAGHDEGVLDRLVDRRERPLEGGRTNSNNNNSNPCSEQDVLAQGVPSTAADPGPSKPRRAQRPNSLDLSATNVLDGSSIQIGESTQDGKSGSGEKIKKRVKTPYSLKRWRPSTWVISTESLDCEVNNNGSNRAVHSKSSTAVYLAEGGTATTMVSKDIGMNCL

T1 sequence (P00533 669-1210): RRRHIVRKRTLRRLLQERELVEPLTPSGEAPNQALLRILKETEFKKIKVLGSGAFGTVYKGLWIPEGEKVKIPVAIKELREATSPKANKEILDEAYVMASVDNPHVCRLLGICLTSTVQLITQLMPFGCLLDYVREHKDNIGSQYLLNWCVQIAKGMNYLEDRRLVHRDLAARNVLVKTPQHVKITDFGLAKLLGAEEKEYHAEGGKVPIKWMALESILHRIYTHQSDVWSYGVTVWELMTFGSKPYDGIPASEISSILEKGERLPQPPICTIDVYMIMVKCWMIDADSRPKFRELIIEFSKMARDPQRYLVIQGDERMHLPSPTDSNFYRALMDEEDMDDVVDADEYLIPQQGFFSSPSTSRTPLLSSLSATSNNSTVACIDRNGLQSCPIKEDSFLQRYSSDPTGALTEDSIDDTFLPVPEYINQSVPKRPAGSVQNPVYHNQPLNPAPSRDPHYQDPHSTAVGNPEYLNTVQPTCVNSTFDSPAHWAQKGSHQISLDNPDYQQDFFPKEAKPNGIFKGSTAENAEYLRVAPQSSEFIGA

C=CC(=O)Nc1ccc(OC)c(Nc2cc(-c3[nH]c(CC)nc3-c3cccc(NC(=O)c4cccc5c4NC(=O)c4ccccc4N5)c3)ccn2)c1 [Compound 4, N-(3-(5-(2-((5-Acrylamido-2-methoxyphenyl)amino)pyridin-4-yl)-2-ethyl-1H-imidazol-4-yl)phenyl)-11-oxo-10,11-dihydro-5H-dibenzo[b,e][1,4]diazepine-9-carboxamide]
Ki (EGFR WT): 1.2 ± 0.04 µM | kinact (EGFR WT): 0.003 s⁻¹ | kinact/KI (EGFR WT): 2500 ± 10 M⁻¹ s⁻¹ | Ki (EGFR [T790M/L858R]; read-out: KI, LRTM): 1.6 ± 0.1 µM | kinact (EGFR [T790M/L858R]; read-out: kinact, LRTM (converted)): 0.00167 s⁻¹ | kinact/KI (EGFR [T790M/L858R]; read-out: kinact/KI, LRTM): 1070 ± 40 M⁻¹ s⁻¹ | remaining binding at 1 µM (BMPR2): 88%
